For one experiment, the system named is female voles. As to conditions: OT administered; without mating 24 hrs or more needed; cited from earlier work.
For another experiment, the system named is female prairie voles. Nature of the experiment: Partner preference test immediately after 6 hour cohabitation (experiment 1). As to conditions: intraperitoneal, tested immediately after cohabitation, FIG. 1. Format: in vivo, prairie vole. The source says: Social bonding in prairie voles is a complex social cognitive process, which involves the synthesis of social motivation, social information process and social learning. Bonding can be efficiently assayed in the laboratory using a partner preference paradigm (Ahern, 2009). The formation of a partner preference in female prairie voles is dependent on OT (Williams, 1994). In the absence of mating, 24 hrs of cohabitation is typically needed for the development of a partner preference. However, OT administration accelerates partner preference formation to 6 hrs or less. […] Melanotan I (MTI) and Melanotan II (MTII), synthetic α-MSH analogues, which act on melanocortin ¾ receptors, and busprione (BUS), a 5-HT1a receptor partial agonist, We administered to female prairie voles and assessed partner preference. […]
Female prairie voles were injected intraperitoneally with either Melanotan II (1.10 mg/kg; Sigma Aldrich, St. Louis, Mo.), buspirone (8, 30 mg/kg; Sigma Aldrich, St. Louis, Mo.) or a saline control in a dissolved in a volume of 0.1 ml 0.1% sterile saline. […] The pairs were cohabitated for six hours and video recorded to monitor for sexual behavior. […] The videos were analyzed afterwards for mating attempts and animals that mated were excluded from the study. […] The time the subject spent in side by side contact with no joint motion was scored using the CleverSys Behavioral Analysis System. […]

Take `CC[C@H](C)[C@@H]1NC(=O)[C@H](Cc2ccc(O)cc2)NC(=O)[C@@H](N)CSSC[C@@H](C(=O)N2CCC[C@H]2C(=O)N[C@@H](CC(C)C)C(=O)NCC(N)=O)NC(=O)[C@H](CC(N)=O)NC(=O)[C@H](CCC(N)=O)NC1=O` [OT, Oxytocin]: the “cohabitation period to partner preference formation” value with female voles is not above 6 h.
Consider `O=C1CC2(CCCC2)CC(=O)N1CCCCN1CCN(c2ncccn2)CC1` [BUS, buspirone], for which the “time spent with the partner male vs. the stranger male (partner preference)” value with female prairie voles (high dose) was “failed to spend significantly more time with either stimulus animal”; in the experiment with female prairie voles (low dose), “spent significantly more time with the partner male vs. the stranger male”.

Values taken from patent US10058584B2, “Methods of improving behavioral therapies” (Emory University, priority 2010, dated 2018).
